Source: patent US12479843B2, “Spiro ring-containing quinazoline compounds” (WIGEN BIOMEDICINE TECHNOLOGY (SHANGHAI) CO., LTD., priority 2019, dated 2025)
Where two headings read alike, the source gives them in different places.

Assays:
H358 cells = assay: Antiproliferative activity against H358 cells (Cell Titer Glow, ultra-low attachment plate); type: cell-based; conditions: three days after addition of compound
Method: 2500 H358 cells were seeded in a 96-well ultra-low attachment plate (corning, 7007). After one day of growth, a serially diluted compound (a maximum concentration of 5 μM, 5-fold dilution, a total of five doses) was added. Three days after the addition of the compound, Cell Titer Glow (Promega, G9681) was added to evaluate pellet growth, and the IC50 value was calculated.

[1] = Pharmacokinetic evaluation in mice; type: in vivo, male ICR mice; conditions: for F: po 10 mg/kg vs iv 2 mg/kg
Method: The compounds were administered by intravenous injection at a dose of 2 mg/kg and oral gavage at a dose of 10 mg/kg (0.5% CMC-Na suspension). 15 male ICR mice were selected for each group, and each mouse was subjected to blood collection at 3 discrete time points, with 3 mice per time point. The time points of sampling were as follows: before the administration, and at 5 min, 15 min, 30 min, 1 h, 3 h, 5 h, 8 h, 12 h and 24 h after the administration. 80 μL of blood was collected from the eye sockets or the hearts of the mice at each of the time points after the administration. All whole blood samples were collected in tubes containing EDTA K2 and centrifuged (1500-1600 rmp) at 4° C. for 10 min to isolate plasma, which was then stored in a refrigerator at −90 to −60° C. for sample analysis. The compound concentration in the plasma was determined by liquid chromatography-tandem mass spectrometry, and the corresponding pharmacokinetic parameters were obtained according to a plasma concentration-time curve.

pERK level in H358 cells = assay: pERK and ERK protein content assay in H358 cells (ELISA); type: cell-based; conditions: 24 h, pERK/ERK ratio compared with DMSO group; for inhibition at 1 µM: Homo sapiens, NCI-H358, compound 1 μM, read-out: Inhibition rate (%) of pERK level
In short: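 Percent inhibition of pERK relative to DMSO, from the ELISA pERK/ERK ratio in lysed H358 cells. Compound applied at 1 μM for 24 h after one day of growth.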

[2] = tested on: Human pancreatic cancer Mia PaCa-2 cells; assay: Antitumor activity on graft tumors of human pancreatic cancer Mia PaCa-2 in nude mice; type: in vivo; conditions: Mia PaCa-2 graft tumors in nude mice, 10 mg/kg intragastric, qd*21
Method: Human pancreatic cancer Mia PaCa-2 cells were cultured conventionally in 1640 medium containing 10% fetal bovine serum in a 37° C./5% CO2 incubator. After passage, the cells were collected when they reached the desired amount. 1×10^7 Mia PaCa-2 cells were injected into the left dorsal side of each nude mouse, and the animals were randomly grouped for administration after tumors grew to 150 mm3. The groups are as follows: 1) a solvent control group of 8 mice; and 2) compound 1 group, compound 2 group, compound 5 group, compound 31 group, compound 131 group, compound 142 group, compound 171 group, compound B group and compound C group, with 8 mice per group. Mice in the solvent control group were subjected to intragastric administration of 0.5% CMC-Na once daily; mice in compound 1 group, compound 2 group, compound 5 group, compound 31 group, compound 131 group, compound 142 group, compound 171 group, compound B group and compound C group were subjected to intragastric administration of a suspension of a compound in 0.5% CMC-Na once daily. On Tuesday and Thursday each week, tumor volumes and body weight of the mice were measured, and the nude mice were sacrificed on day 21 of administration.

[3] = Homo sapiens, NCI-H358, 72 h, 96-well ultra-low attachment plate, Cell Titer Glow
[4] = male, ICR, mouse, plasma, iv, 2 mg/kg
[5] = male, ICR, mouse, plasma, po, 10 mg/kg, 0.5% CMC-Na suspension
[6] = po, 10 mg/kg, 0.5% CMC-Na suspension

| Compound | IC50 (H358 cells; [3]) [nM] | inhibition at 1 µM (pERK level in H358 cells) [%] | also measured |
| --- | --- | --- | --- |
| C=CC(=O)N1CC2(CCN(c3nc(OC4CCN(CCOC)CC4)nc4c(OCC(F)(F)F)c(-c5c(C)ccc6[nH]ncc56)c(C5CC5)cc34)CC2)C1 [B, reference compound] | < 300 | > 90 | IC50 (H358 cells; Homo sapiens, NCI-H358, 72 h): 4.6 nM; AUC(0-t) [1, 4]: 7820 ng·h/mL; clearance [1, 4]: 4.2 mL/min/kg; half-life [1, 4]: 4.47 h; Cmax ([1]; male, ICR, mouse, plasma, iv, 2 mg/kg, read-out: Cmax): 2880 ng/mL; Tmax ([1]; male, ICR, mouse, plasma, iv, 2 mg/kg, read-out: Tmax): 0.083 h; Vd ([1]; male, ICR, mouse, plasma, iv, 2 mg/kg, read-out: Vss): 1.01 L/kg; AUC(0-t) [1, 5]: 10300 ng·h/mL; half-life [1, 5]: 3.74 h; Cmax ([1]; male, ICR, mouse, plasma, po, 10 mg/kg, 0.5% CMC-Na suspension, read-out: Cmax): 1300 ng/mL; Tmax ([1]; male, ICR, mouse, plasma, po, 10 mg/kg, 0.5% CMC-Na suspension, read-out: Tmax): 2 h; F [1]: 26.5%; Anti-tumor effect (regression) [2]: 25% regression |
| C=C(F)C(=O)N1CC2(CCN(c3nc(OC4CCN(CCOC)CC4)nc4c(OCC)c(-c5c(C)ccc6[nH]ncc56)c(C5CC5)cc34)CC2)C1 [Compound 2] | < 300 | > 90 | Anti-tumor effect (regression) [2]: 23% regression |
| C=C(F)C(=O)N1CC2(CCN(c3nc(OC4CCN(CCOC)CC4)nc4c(OCC(F)(F)F)c(-c5c(C)ccc6[nH]ncc56)c(C5CC5)cc34)CC2)C1 [Compound 1] |  |  | IC50 (H358 cells; 96-well ultra-low attachment plate, Cell Titer Glow): < 300 nM; Cl ([1]; iv, 2 mg/kg): 2.33 mL/min/kg; Cmax ([1]; iv, 2 mg/kg): 2557 ng/mL; Tmax ([1]; iv, 2 mg/kg): 1 h; Vss ([1]; iv, 2 mg/kg): 0.782 L/kg; t1/2 ([1]; iv, 2 mg/kg): 4.31 h; F [1]: 29.0%; Cmax [1, 6]: 1543 ng/mL; Tmax [1, 6]: 4 h; t1/2 [1, 6]: 6.94 h; Inhibition rate (%) of pERK level (pERK level in H358 cells; compound 1 μM): +++ (+++ indicates an inhibition rate greater than 90%.); Anti-tumor effect (regression) [2]: 39% regression |
| C=Cc1cc2c(N3CCC4(CC3)CN(C(=O)C(=C)F)C4)nc(OC3CCN(CCOC)CC3)nc2c(OCC(F)(F)F)c1-c1c(C)ccc2[nH]ncc12 [Compound 5] | < 300 | > 90 | Anti-tumor effect (regression) [2]: 30% regression |
| C=CC(=O)N1CC2(CCN(c3nc(N4CC(N(C)CC(F)(F)F)C4)nc4c(OCC(F)(F)F)c(-c5c(C)ccc6[nH]ncc56)c(C5CC5)cc34)CC2)C1 [Compound 167] | 300 to 1000 | > 90 |  |
| C=CC(=O)N1CC2(CCN(c3nc(N4CC(N5CC(CC#N)C5)C4)nc4c(OCC(F)(F)F)c(-c5c(C)ccc6[nH]ncc56)c(C5CC5)cc34)CC2)C1 [Compound 242] | < 300 | > 90 |  |
| C=C(F)C(=O)N1CC2(CCN(c3nc(N4CCC5(CCN(CCOC)CC5)C4)nc4c(OCC(F)(F)F)c(-c5c(C)ccc6[nH]ncc56)c(C5CC5)cc34)CC2)C1 [Compound 102] | < 300 | > 90 |  |
| C=CC(=O)N1CC2(CCN(c3nc(N4CC(N5CCC(F)CC5)C4)nc4c(OCC(F)(F)F)c(-c5c(C)ccc6[nH]ncc56)c(C5CC5)cc34)CC2)C1 [Compound 178] | < 300 | > 90 |  |
| C=CC(=O)N1CC2(CCN(c3nc(N4CCC5(CCN(CCOC)C5)CC4)nc4c(OCC(F)(F)F)c(-c5c(C)ccc6[nH]ncc56)c(C5CC5)cc34)CC2)C1 [Compound 105] | < 300 | > 90 |  |
| C=CC(=O)N1CC2(CCN(c3nc(OC4CN(C5COC5)C4)nc4c(OCC(F)(F)F)c(-c5c(C)ccc6[nH]ncc56)c(C5CC5)cc34)CC2)C1 [Compound 111] | < 300 | > 90 |  |
| C=CC(=O)N1CC2(CCN(c3nc(OC4CCN(CCOC)CC4)nc4c(OCC(F)(F)F)c(-c5c(C)ccc6[nH]ncc56)c(C(C)C)cc34)CC2)C1 [Compound 15] | < 300 | > 90 |  |
| C=CC(=O)N1CC2(CCN(c3nc(N4CC(N5CCCC5)C4)nc4c(OCC(F)(F)F)c(-c5c(C)c(F)cc6[nH]ncc56)c(C5CC5)cc34)CC2)C1 [Compound 220] | < 300 | > 90 |  |
| C=CC(=O)N1CC2(CCN(c3nc(OC4CCS(=O)(=O)C(C)(C)C4)nc4c(OCC(F)(F)F)c(-c5c(C)ccc6[nH]ncc56)c(C5CC5)cc34)CC2)C1 (stereo not drawn) [Compound 311] | < 300 | > 90 |  |
| C=CC(=O)N1CC2(CCN(c3nc(N4CC5(C4)CN(C4COC4)C5)nc4c(OCC(F)(F)F)c(-c5c(C)ccc6[nH]ncc56)c(C5CC5)cc34)CC2)C1 [Compound 158] | < 300 | > 90 |  |
| C=C(F)C(=O)N1CC2(CCN(c3nc(N4CCC(N5CCOCC5)CC4)nc4c(OCC(F)(F)F)c(-c5c(C)ccc6[nH]ncc56)c(C5CC5)cc34)CC2)C1 [Compound 149] | 300 to 1000 | 50 to 90 |  |
| C=CC(=O)N1CC2(CCN(c3nc(N4CC5(C4)CS(=O)(=O)C5)nc4c(OCC(F)(F)F)c(-c5c(C)ccc6[nH]ncc56)c(C5CC5)cc34)CC2)C1 [Compound 306] | < 300 | > 90 |  |
| C=CC(=O)N1CC2(CCN(c3nc(OC4CCN(CCOC)CC4)nc4c(N5CC(F)(F)C5)c(-c5c(C)ccc6[nH]ncc56)c(C5CC5)cc34)CC2)C1 [Compound 9] | < 300 | > 90 |  |
| C=CC(=O)N1CC2(CCN(c3nc(OC4CC5(C4)CN(C)C5)nc4c(OCC(F)(F)F)c(-c5c(C)ccc6[nH]ncc56)c(C5CC5)cc34)CC2)C1 [Compound 123] | < 300 | > 90 |  |
| C=C(F)C(=O)N1CC2(CCN(c3nc(OC4CCN(CCOC)CC4)nc4c(OCC(F)(F)F)c(-c5ccccc5F)c(C5CC5)cc34)CC2)C1 [Compound 52] | < 300 | > 90 |  |
| C=CC(=O)N1CC2(CCN(c3nc(N4CC(N5CCC(F)(F)CC5)C4)nc4c(OCC(F)(F)F)c(-c5c(C)ccc6[nH]ncc56)c(C5CC5)cc34)CC2)C1 [Compound 180] | 300 to 1000 | > 90 |  |
| C=C(F)C(=O)N1CC2(CCN(c3nc(N4CCC5(CC4)CN(CCOC)C5)nc4c(OCC(F)(F)F)c(-c5c(C)ccc6[nH]ncc56)c(C5CC5)cc34)CC2)C1 [Compound 104] | 300 to 1000 | 50 to 90 |  |
| C=C(F)C(=O)N1CC2(CCN(c3nc(OC4CCC5(CC4)CN(CCOC)C5)nc4c(OCC(F)(F)F)c(-c5c(C)ccc6[nH]ncc56)c(C5CC5)cc34)CC2)C1 [Compound 138] | < 300 | > 90 |  |
